Experimental data published in PubChem BioAssay (NCI).
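Method: 48-hour compound exposure of cells in 96-well plates, five concentrations, linear interpolation of endpoints. TGI is the concentration that stops growth completely.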

Columns and labels:
Assay in all cases: growth of human tumour cells (NCI), 48 h
MALME-3M melanoma = test system: MALME-3M melanoma
LXFL 529 NSCLC = test system: LXFL 529 NSCLC
SNB-75 CNS = test system: SNB-75 CNS
NCI-H23 lung = test system: NCI-H23 lung
OVCAR-3 ovarian = test system: OVCAR-3 ovarian
UACC-257 melanoma = test system: UACC-257 melanoma
SK-MEL-5 melanoma = test system: SK-MEL-5 melanoma
OVCAR-5 ovarian = test system: OVCAR-5 ovarian
NCI-H522 lung = test system: NCI-H522 lung
A549 NSCLC = test system: A549 NSCLC
SK-MEL-2 melanoma = test system: SK-MEL-2 melanoma
CCRF-CEM leukemia = test system: CCRF-CEM leukemia
SNB-19 CNS = test system: SNB-19 CNS
KM12 colon = test system: KM12 colon
K-562 leukemia = test system: K-562 leukemia
HL-60(TB) leukemia = test system: HL-60(TB) leukemia
DMS 114 small cell lung = test system: DMS 114 small cell lung
HOP-62 NSCLC = test system: HOP-62 NSCLC
U251 CNS = test system: U251 CNS
UACC-62 melanoma = test system: UACC-62 melanoma
MOLT-4 leukemia = test system: MOLT-4 leukemia
SN12C renal = test system: SN12C renal
COLO 205 colon = test system: COLO 205 colon
786-0 renal = test system: 786-0 renal
RPMI-8226 leukemia = test system: RPMI-8226 leukemia
HCT-15 colon = test system: HCT-15 colon
SF-295 CNS = test system: SF-295 CNS
NCI-H460 lung = test system: NCI-H460 lung
HCT-116 colon = test system: HCT-116 colon
ACHN renal = test system: ACHN renal
HOP-92 NSCLC = test system: HOP-92 NSCLC
SNB-78 CNS = test system: SNB-78 CNS
CAKI-1 renal = test system: CAKI-1 renal
OVCAR-4 ovarian = test system: OVCAR-4 ovarian
RXF-631 renal = test system: RXF-631 renal
KM20L2 colon = test system: KM20L2 colon
M19-MEL melanoma = test system: M19-MEL melanoma
OVCAR-8 ovarian = test system: OVCAR-8 ovarian
SR leukemia = test system: SR leukemia
SF-268 CNS = test system: SF-268 CNS
M14 melanoma = test system: M14 melanoma
NCI-H226 lung = test system: NCI-H226 lung
TK-10 renal = test system: TK-10 renal
SK-OV-3 ovarian = test system: SK-OV-3 ovarian
SW-620 colon = test system: SW-620 colon
IGROV1 ovarian = test system: IGROV1 ovarian
A498 renal = test system: A498 renal
LOX IMVI melanoma = test system: LOX IMVI melanoma
HT29 colon = test system: HT29 colon
SK-MEL-28 melanoma = test system: SK-MEL-28 melanoma
SF-539 CNS = test system: SF-539 CNS
EKVX NSCLC = test system: EKVX NSCLC
DMS 273 small cell lung = test system: DMS 273 small cell lung
HCC-2998 colon = test system: HCC-2998 colon
HOP-18 NSCLC = test system: HOP-18 NSCLC
DLD-1 colon = test system: DLD-1 colon
UO-31 renal = test system: UO-31 renal
XF 498 CNS = test system: XF 498 CNS
RXF 393 renal = test system: RXF 393 renal

CCCCCNC(=O)c1c(O)[nH]c(=S)[nH]c1=O
TGI (MALME-3M melanoma): > 100 µM | TGI (LXFL 529 NSCLC): > 100 µM | TGI (SNB-75 CNS): > 100 µM | TGI (NCI-H23 lung): > 100 µM | TGI (OVCAR-3 ovarian): > 100 µM | TGI (UACC-257 melanoma): > 100 µM | TGI (SK-MEL-5 melanoma): > 100 µM | TGI (OVCAR-5 ovarian): > 100 µM | TGI (NCI-H522 lung): > 100 µM | TGI (A549 NSCLC): > 100 µM | TGI (SK-MEL-2 melanoma): > 100 µM | TGI (CCRF-CEM leukemia): > 100 µM | TGI (SNB-19 CNS): > 100 µM | TGI (KM12 colon): > 100 µM | TGI (K-562 leukemia): > 100 µM | TGI (HL-60(TB) leukemia): > 100 µM | TGI (DMS 114 small cell lung): > 100 µM | TGI (HOP-62 NSCLC): > 100 µM | TGI (U251 CNS): > 100 µM | TGI (UACC-62 melanoma): > 100 µM | TGI (MOLT-4 leukemia): > 100 µM | TGI (SN12C renal): > 100 µM | TGI (COLO 205 colon): > 100 µM | TGI (786-0 renal): > 100 µM | TGI (RPMI-8226 leukemia): > 100 µM | TGI (HCT-15 colon): > 100 µM | TGI (SF-295 CNS): > 100 µM | TGI (NCI-H460 lung): > 100 µM | TGI (HCT-116 colon): > 100 µM | TGI (ACHN renal): > 100 µM | TGI (HOP-92 NSCLC): > 100 µM | TGI (SNB-78 CNS): > 100 µM | TGI (CAKI-1 renal): > 100 µM | TGI (OVCAR-4 ovarian): > 100 µM | TGI (RXF-631 renal): > 100 µM | TGI (KM20L2 colon): > 100 µM | TGI (M19-MEL melanoma): > 100 µM | TGI (OVCAR-8 ovarian): > 100 µM | TGI (SR leukemia): > 100 µM | TGI (SF-268 CNS): > 100 µM | TGI (M14 melanoma): > 100 µM | TGI (NCI-H226 lung): > 100 µM | TGI (TK-10 renal): > 100 µM | TGI (SK-OV-3 ovarian): > 100 µM | TGI (SW-620 colon): > 100 µM | TGI (IGROV1 ovarian): > 100 µM | TGI (A498 renal): > 100 µM | TGI (LOX IMVI melanoma): > 100 µM | TGI (HT29 colon): > 100 µM | TGI (SK-MEL-28 melanoma): > 100 µM | TGI (SF-539 CNS): > 100 µM

CCCCCCCCCCCCCCCCCC(=O)OCC(C[As](=O)(O)O)OC(=O)CCCCCCCCCCCCCCCCC (stereo not drawn)
TGI (EKVX NSCLC): > 100 µM | TGI (MALME-3M melanoma): > 100 µM | TGI (DMS 273 small cell lung): > 100 µM | TGI (HCC-2998 colon): > 100 µM | TGI (LXFL 529 NSCLC): > 100 µM | TGI (SNB-75 CNS): 81.6 µM | TGI (NCI-H23 lung): > 100 µM | TGI (OVCAR-3 ovarian): > 100 µM | TGI (UACC-257 melanoma): > 100 µM | TGI (SK-MEL-5 melanoma): > 100 µM | TGI (OVCAR-5 ovarian): > 100 µM | TGI (NCI-H522 lung): > 100 µM | TGI (A549 NSCLC): > 100 µM | TGI (SK-MEL-2 melanoma): > 100 µM | TGI (CCRF-CEM leukemia): > 100 µM | TGI (SNB-19 CNS): 77.4 µM | TGI (KM12 colon): > 100 µM | TGI (K-562 leukemia): > 100 µM | TGI (HL-60(TB) leukemia): > 100 µM | TGI (DMS 114 small cell lung): 34.3 µM | TGI (HOP-18 NSCLC): > 100 µM | TGI (DLD-1 colon): > 100 µM | TGI (HOP-62 NSCLC): 85.2 µM | TGI (U251 CNS): > 100 µM | TGI (UACC-62 melanoma): > 100 µM | TGI (MOLT-4 leukemia): > 100 µM | TGI (SN12C renal): > 100 µM | TGI (786-0 renal): > 100 µM | TGI (UO-31 renal): > 100 µM | TGI (XF 498 CNS): 53 µM | TGI (RPMI-8226 leukemia): 80.8 µM | TGI (HCT-15 colon): > 100 µM | TGI (SF-295 CNS): > 100 µM | TGI (NCI-H460 lung): > 100 µM | TGI (HCT-116 colon): > 100 µM | TGI (ACHN renal): > 100 µM | TGI (HOP-92 NSCLC): 40.4 µM | TGI (SNB-78 CNS): > 100 µM | TGI (CAKI-1 renal): > 100 µM | TGI (OVCAR-4 ovarian): > 100 µM | TGI (RXF-631 renal): > 100 µM | TGI (KM20L2 colon): > 100 µM | TGI (RXF 393 renal): 47 µM | TGI (M19-MEL melanoma): > 100 µM | TGI (OVCAR-8 ovarian): > 100 µM | TGI (SR leukemia): 38.9 µM | TGI (SF-268 CNS): > 100 µM | TGI (M14 melanoma): > 100 µM | TGI (NCI-H226 lung): 70.4 µM | TGI (TK-10 renal): > 100 µM | TGI (SK-OV-3 ovarian): 50 µM | TGI (SW-620 colon): 33.8 µM | TGI (IGROV1 ovarian): > 100 µM | TGI (A498 renal): > 100 µM | TGI (HT29 colon): > 100 µM | TGI (SK-MEL-28 melanoma): > 100 µM | TGI (SF-539 CNS): > 100 µM
